Data published in patent US6815546B2, “Analogues of camptothecin, their use as medicaments and the pharmaceutical compositions containing them” (Societe de Recherches et d'Applications Scientifiques …, priority 1995, dated 2004).

Key:
[1] = target: T1, DNA topoisomerase 1 of purified calf thymus (Bos taurus, UniProt F1MN93); assay: Relaxation activity test of DNA induced by topoisomerase 1; type: biochemical; details: supercoiled pUC19, 15 minutes at 37° C.
T1 construct: DNA topoisomerase 1 of purified calf thymus (Gibco-BRL, Paisley, United Kingdom); purchased Gibco-BRL, Paisley, United Kingdom; host or cells: calf thymus tissue
T1 sequence (F1MN93 1-767): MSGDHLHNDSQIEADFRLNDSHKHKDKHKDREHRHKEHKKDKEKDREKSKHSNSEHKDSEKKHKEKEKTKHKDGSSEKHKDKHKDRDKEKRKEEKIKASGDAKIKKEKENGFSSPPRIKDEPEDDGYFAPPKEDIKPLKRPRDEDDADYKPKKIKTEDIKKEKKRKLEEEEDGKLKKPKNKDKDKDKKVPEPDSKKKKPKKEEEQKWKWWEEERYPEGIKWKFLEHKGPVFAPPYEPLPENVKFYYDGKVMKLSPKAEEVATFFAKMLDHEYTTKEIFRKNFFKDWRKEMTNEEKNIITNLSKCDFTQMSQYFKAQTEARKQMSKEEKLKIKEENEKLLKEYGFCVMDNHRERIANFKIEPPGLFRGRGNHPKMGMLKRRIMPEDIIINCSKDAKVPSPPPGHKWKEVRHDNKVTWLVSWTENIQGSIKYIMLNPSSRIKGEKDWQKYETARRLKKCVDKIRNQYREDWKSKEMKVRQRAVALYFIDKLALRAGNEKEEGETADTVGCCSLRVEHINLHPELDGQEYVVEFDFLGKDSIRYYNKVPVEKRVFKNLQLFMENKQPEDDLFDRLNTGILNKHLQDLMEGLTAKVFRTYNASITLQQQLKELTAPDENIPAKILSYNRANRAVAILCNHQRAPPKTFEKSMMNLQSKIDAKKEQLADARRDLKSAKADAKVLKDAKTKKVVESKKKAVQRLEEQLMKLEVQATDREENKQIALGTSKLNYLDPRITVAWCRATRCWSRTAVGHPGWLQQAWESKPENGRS
Description: 1. Relaxation Activity Test of DNA Induced by Topoisomerase 1
All the reactions are carried out in a 20 μl reaction buffer constituted by 50 mM of Tris-HCl (pH 7.5), 50 mM of KCl, 0.5 mM of dithiothreitol, 10 mM of MgCl2, 0.1 mM of ethyldiamine tetraacetic acid (EDTA), 30 μg/ml of bovine serum albumin and 300 ng of supercoiled pUC19 (Pharmacia Biotech, Orsay, France) with or without the compounds to be tested at defined concentrations. All the compounds to be tested are initially dissolved in dimethylsulphoxide (DMSO) at 50 mM, the other dilutions being carried out with distilled water. […] The reaction is initiated by the addition of a unit of DNA topoisomerase 1 of purified calf thymus (Gibco-BRL, Paisley, United Kingdom) and is carried out for 15 minutes at 37° C. The reactions are stopped by the addition of 3 μl of a mixture containing 1% dodecyl sodium sulphate at 1%, 20 mM of EDTA and 500 μg/ml of K proteinase (Boehringer Mannheim, Meylan, France). After an additional incubation period of 30 minutes at 37° C., 2 μl of a loading buffer containing 10 mM of Na2HPO4, 0.3% of bromophenol blue et 16% Ficoll are added to samples which are subjected to electrophoresis in agarose gels at 1.2% at 1 V/cm for 20 hours in a buffer containing 36 mM of Tris-HCl at pH 7.8, 30 mM of Na2HPO4, 1 mM of EDTA and 2 μg/ml of chloroquine. The gels are stained with 2 μg/ml of ethidium bromide, photographed under UV light at 312 nm with a camera and the fluorescent intensity is measured with a bioProfil camera (Vilber Lournat, Lyon, France) with a view to determining the percentage of relaxed DNA. Each experiment is carried out at least three times in duplicate.
In each experiment, the supercoiled plasmid DNA is incubated alone or with topoisomerase 1. The reaction is completed within 15 minutes. For each compound to be tested or control, the supercoiled plasmid DNA is incubated in the presence of 500 μM of compound to be tested with enzyme or without enzyme plus the compound to be tested, at concentrations of 10 μM, 100 μM, 200 μM and 500 μM.

[2] = tested on: Adenocarcinoma HT29 cells from the human colon; assay: Adenocarcinoma HT29 cell proliferation, WST1 (compounds in DMA); type: cell-based; details: Homo sapiens, HT-29, 72 hours, final DMA 0.1% (v/v)
Description: c. Adenocarcinoma HT29 cells from the human colon are cultured in a single layer at 37° in a humidified atmosphere containing 95% of air and 5% of CO2, in a modified essential Earle's medium at 4.5 g/l (Gibco, Paisley, United Kingdom); completed with 10% of inactivated foetal calf serum, 2 mM of glutamine, and 50 μg/ml of gentamycin (Gibco, Paisley, United Kingdom).
Approximately 2000 cells are seeded with the culture medium above in the wells of a microplate (96 wells, flat-bottomed) and incubated for 24 hours. Solutions in N,N-dimethyl-acetamide (DMA) of each of the examples of the invention, diluted in the culture medium so that the final concentration of DMA is 0.1% (v/v), are added to the plate cultures in order to obtain final concentration ranges from 1×10^−13 to 1×10^−5 M, and the cells are incubated for 72 hours.
The WST1 staining reagent, (Boehringer Mannheim, Germany) is then added to each well at a final concentration of 9%, and the cells are incubated for 2 hours at 37° C. This stage allows the mitochondrial deshydrogenase of the living cells to convert WST1 orange tetrazolium salt into crimson formazan. The resulting stained solutions are quantified by dual-beam detection ([…]) using a multi-cuvette scanning spectrophotometer.
The results shown in the following table III C) are expressed in terms of inhibitory concentration at 50% (IC50, in nM), accompanied by a confidence interval.

Row | PERCENTAGE OF RELAXED DNA ([1]; 500 μM compound) [%] | SMILES | PERCENTAGE OF RELAXED DNA ([1]; 10 μM compound) [%] | PERCENTAGE OF RELAXED DNA ([1]; 100 μM compound) [%] | PERCENTAGE OF RELAXED DNA ([1]; 200 μM compound) [%] | IC50 [2] [nM]
1 | 51.1 | CCOC(=O)CC(O)(CC)c1cc2n(c(=O)c1CO)Cc1cc3ccccc3nc1-2 (stereo not shown) [Example 2, ethyl 3-hydroxy-3-[8-(hydroxymethyl)-9-oxo-9,11-dihydroindolizino [1,2-b]quinolin-7-yl]pentanoate] | 97.9 | 78.3 | 73.2 | 
2 |  | CCN1COc2ccc3nc4c(cc3c2C1)Cn1c-4cc2c(c1=O)COC(=O)CC2(O)CC (stereo not shown) [Example 76, 2,9-diethyl-9-hydroxy-1,2,3,9,10,16-hexahydro-13H-[1,3]oxazino[5,6-f]oxepino[3′,4′:6,7]indolizino[1,2-b]quinoline-11,14-dione] | 79.7 | 33.5 | 23.2 | 
3 |  | CCC1(O)CC(=O)OCc2c1cc1n(c2=O)Cc2cc3c4c(ccc3nc2-1)OCN(C)C4 (stereo not shown) [Example 77, 9-ethyl-9-hydroxy-2-methyl-1,2,3,9,10,16-hexahydro-13H-[1,3]oxazino[5,6f]oxepino[3′,4′:6,7]indolizino[1,2-b]quinoline-11,14-dione] | 86.2 | 35.1 | 32.1 | 
4 |  | CCC1(O)CC(=O)OCc2c1cc1n(c2=O)Cc2cc3c4c(ccc3nc2-1)OCN(Cc1ccccc1)C4 (stereo not shown) [Example 78, 2-benzyl-9-ethyl-9-hydroxy-1,2,3,9,10,16-hexahydro-13H-[1,3]oxazino[5,6f]oxepino[3′,4′:6,7]indolizino[1,2-b]quinoline-11,14-dione] | 56.2 | 28.0 | 24.2 | 
5 |  | CCC1(O)CC(=O)OCc2c1cc1n(c2=O)Cc2cc3c4c(c(F)cc3nc2-1)OCN(Cc1ccccc1)C4 (stereo not shown) [Example 79, 2-benzyl-9-ethyl-5-fluoro-9-hydroxy-1,2,3,9,10,16-hexahydro-13H-[1,3]oxazino[5,6f]oxepino[3′,4′:6,7]indolizino[1,2-b]quinoline-11,14-dione] | 55.6 | 38.9 | 30.0 | 
6 |  | CC[C@@]1(O)CC(=O)OCc2c1cc1n(c2=O)Cc2cc3ccc(F)cc3nc2-1 [Example 84, (5R)-5-ethyl-9-fluoro-5-hydroxy-4,5,13,15-tetrahydro-1H,3H-oxepino[3′,4′:6,7]indolizino[1,2-b]quinoline-3,15-dione] |  |  |  | 2.5
7 |  | CCCCc1c2c(nc3ccccc13)-c1cc3c(c(=O)n1C2)COC(=O)C[C@]3(O)CC [Example 87, (5R)-12-butyl-5-ethyl-5-hydroxy-4,5,13,15-tetrahydro-1H,3H-oxepino[3′,4′:6,7]indolizino[1,2-b]quinoline-3,15-dione] |  |  |  | 16
8 |  | CCc1c2c(nc3ccccc13)-c1cc3c(c(=O)n1C2)COC(=O)C[C@]3(O)CC [Example 88, (5R)-5,12-diethyl-5-hydroxy-4,5,13,15-tetrahydro-1H,3H-oxepino[3′,4′:6,7]indolizino[1,2-b]quinoline-3,15-dione] |  |  |  | 12
9 |  | CC[C@@]1(O)CC(=O)OCc2c1cc1n(c2=O)Cc2c-1nc1ccccc1c2-c1ccccc1 [Example 89, (5R)-5-ethyl-5-hydroxy-12-phenyl-4,5,13,15-tetrahydro-1H,3H-oxepino[3′,4′:6,7]indolizino[1,2-b]quinoline-3,15-dione] |  |  |  | 13
10 |  | CC[C@@]1(O)CC(=O)OCc2c1cc1n(c2=O)Cc2c-1nc1ccccc1c2-c1ccc(C)cc1 [Example 91, (5R)-5-ethyl-5-hydroxy-12-(4-methylphenyl)-4,5,13,15-tetrahydro-1H,3H-oxepino[3′,4′:6,7]indolizino[1,2-b]quinoline-3,15-dione] |  |  |  | 11
11 |  | CC[C@@]1(O)CC(=O)OCc2c1cc1n(c2=O)Cc2c-1nc1cc(F)c(F)cc1c2-c1ccccc1 [Example 93, (5R)-5-ethyl-9,10-difluoro-5-hydroxy-12-phenyl-4,5,13,15-tetrahydro-1H,3H-oxepino[3′,4′:6,7]indolizino[1,2-b]quinoline-3,15-dione] |  |  |  | 12
